Where “and” joins values, the source holds several entries; their conditions need not be identical. Equal entries are not always repeated.
Columns and labels:
[1] = system: MOLM14 wild-type and MOLM14 R132 cells; assay: Cell Viability Assay (Annexin V/DAPI flow cytometry: % viable cells and % apoptosis); format: cell-based, human
Description: MOLM14 wild-type and MOLM14 R132 cells are treated with 2 μg/ml doxycycline to induce expression of IDH1 WT and IDH1-R132H and then incubated at 37 degrees C. for 4 days. Cells are seeded in 4 (12 wells) plates at 10,000 cells/well in 1 mL growth media containing 2 ug/mL doxycycline.
Cells are treated with: DMSO (in triplicate), or with Compound A at 0, 125, 250, 500, 1000 nM (each in triplicate) as described in the following: After the initial induction described above, 0.5 mL media with 1× of doxycycline plus 1× Compound A or DMSO is added and incubated for 3 days. After the 3 days, another 0.5 mL aliquot of fresh media with 1×doxycyline plus 1×compound A or DMSO is added and incubated for 3 further days. Venetoclax (0, 25, 50, 100, 200 nM) is then added as a single agent or in combination with 1× Compound A. Two days later, cells are collected in flow cytometry filtered tubes, and processed for flow cytometry. Cells are washed with Annexin V Binding Buffer (ABB, 2 mL) [1 M Hepes buffer (10 mL), 5 M NaCl (28 mL), 1 M CaCl2 (5 mL), H2O (957 mL)], and then centrifuged at 1500 rpm for 5 min. Cells are stained with ABB (50 μL), with APC Annexin V Antibody (1 μL, Biolegend cat #640941), and kept in the dark for 20 minutes. Cells are washed with ABB (2 mL) and centrifuged at 1500 rpm for 5 min. DAPI (Invitrogen cat #D3571) and counting beads (Invitrogen cat #C36950) are added in Annexin V binding buffer [DAPI (5 μL, 2 μg/mL)+counting beads (5 μL (520,000 beads per 50 μL))+ABB (150 μL)] in a total volume 160 μL/tube, then analyzed with a Gallios flow cytometer (Beckman Coulter). Cells collection is stopped when counting beads reach 250 beads per sample. Kalusa software is used for analysis. The percentage of gated Annexin V-negative/DAPI-negative cells constitutes % viable cells, while the percentage of Annexin V-positive cells constitutes % apoptosis.

[2] = system: AML-PDX; assay: AML-PDX Model; format: in vivo, NSG mice; conditions: peripheral blood, following 6 weeks of treatment, individual animals
Description: Male NSG mice (6-9 weeks of age, The Jackson Laboratory) are irradiated with 250 cGy and on the next day, injected intravenously with AML-PDX (1×10^6 cells/100 μL). Peripheral blood is collected via the retro-orbital route and processed to measure hCD45+ cells by flow cytometry to confirm the establishment of leukemia. When leukemia engraftment reaches more than 1%, mice are randomly grouped for treatment with vehicle, Compound A (10 mg/kg, daily oral gavage), venetoclax (50 mg/kg, oral gavage for 2 weeks on and 1 week off (2 cycles)) or the combination of venetoclax (50 mg/kg, oral gavage for 2 weeks on and 1 week off (2 cycles)) and Compound A (10 mg/kg, daily oral gavage). Additional dosing may be employed beyond the 2 cycles stated above based on the assessment of the level of residual disease remaining following 6 weeks of treatment. Peripheral blood is collected once every two weeks via the retro-orbital route and processed to measure leukemia burden (% hCD33+/hCD45+ cells) by flow cytometry, and to measure differentiation (% hCD14+ cells percentage out of total hCD45+ cells)). Sixty-five μL stain/wash buffer (5% heat inactivated (HI)-FBS in DPBS) is added per tube, mixed up and down 3 to 4 times by pipette, and 100 μL of the blood suspension is transferred to 5 mL polypropylene tubes. The stains are added according to the manufacturer's instructions (anti-human CD33-APC (BD Biosciences cat #551378), anti-human CD14-PE-Cy7 (BD Biosciences cat #557742), anti-human CD45-APC-Cy7 (BD Biosciences cat #557833). The samples are incubated for 30 minutes at room temperature, protected from light. After the incubation, 1.5 mL 1× BD Lyse/Fix buffer (37° C., (BD #558049)) is added to each sample and incubated for 12 minutes at room temperature. The tubes are then centrifuged at 1500 RPMI for 5 minutes. BD Lyse/Fix solution is aspirated and the cell pellet washed with stain/wash buffer 2 times. Fixed cells are then resuspended in 200 μL stain/wash buffer then transferred to filtered flow tubes. Samples are analyzed on a Gallios Flow cytometer (Beckman, Texas) using standard flow cytometry principles and technique. Population gating and data analysis of percent population are performed in the Flow Jo software.

[3] = target: T1, mutant IDH1 (IDH1 R132H) in MOLM14 R132 cell line construct (Homo sapiens, UniProt O75874, R132H); assay: 2-HG Inhibition Assay (LC-MS of cell culture supernatant); format: cell-based; conditions: for 2-HG: 4 days, MOLM14 R132, doxycycline-induced, culture media
T1 construct: FLAG; host or cells: MOLM14 human leukemia cells (lentiviral, doxycycline-induced)
Text: MOLM14 wild-type human leukemia cells and a MOLM14 R132 construct cell line are generated by lentiviral transfection of MOLM14 cells using IDH1 WT (doxycycline inducible) pSLIK-IDH1-FLAG (Addgene Plasmid #66802) and IDH1 R132H (doxycycline inducible) pSLIK-IDH1-R132H-FLAG (Addgene Plasmid #66803), and is kindly provided by Dr. Jean-Emmanuel Sarry (Centre de Recherches en Cancérologie de Toulouse, UMR1037, Inserm, Université de Toulouse 3 Paul Sabatier, Toulouse, France; bioRxiv 749580; doi.org/10.1101/749580). MOLM14-WT and MOLM14-R132 mutant cells are seeded in 6 well plates (lx 10^6/well) in 5 ml of complete RPMI medium containing 10% FBS (Sigma) and 1× Pen/Strep (Sigma). After induction with 2 μg/ml doxycycline, the cells are incubated in 37 degree for 4 days.
Cells are seeded in 12 wells plates (100,000 cells/well) in 1 mL, in triplicate. Cells are treated with 2 μg/ml doxycycline to induce IDH1 expression, then treated with DMSO, 0.1 or 1 μM Compound A, and incubated at 37 degrees C. for 4 days.
65 μL of media are collected and centrifuged, and 60 μL of the supernatant media are collected and frozen at −80 degrees C.
LCMS 2-HG Metabolite Analysis.
The effects of IDH1 inhibition on the concentrations of total 2-HG and (α-KG) are determined by liquid chromatography-mass spectrometry (LC-MS) analysis of cell culture supernatant. Calibration curves are prepared by spiking 2-HG and α-KG into cell culture media. The method utilizes derivatization with O-benzylhydroxylamine prior to analysis by LC-MS. Ten microliters of each standard or sample is placed into a deep-well 96-well plate and combined with 100 μL of internal standard solution containing 10 μM d5-2-hydroxyglutarate and 10 μM d6-α-KG. 50 μL of 1 M O-benzylhydroxylamine in pyridine buffer (8.6% pyridine, pH 5) and 50 μL of 1 M N-(3-dimethylaminopropyl)-N-ethylcarbodiimide hydrochloride (EDC) in pyridine buffer is added to each sample. The derivatization reaction proceeds at room temperature for one hour. […] Analyte concentrations for the unknowns are back-calculated from the calibration curves.

[4] = system: mutant IDH1; conditions: from WO 2018/111707 A1; cited from earlier work
[5] = venetoclax 50 mg/kg oral gavage, 2 weeks on and 1 week off (2 cycles)
[6] = Compound A 10 mg/kg daily oral gavage, 10 mg/kg

T1 sequence (O75874 whole entry R132H): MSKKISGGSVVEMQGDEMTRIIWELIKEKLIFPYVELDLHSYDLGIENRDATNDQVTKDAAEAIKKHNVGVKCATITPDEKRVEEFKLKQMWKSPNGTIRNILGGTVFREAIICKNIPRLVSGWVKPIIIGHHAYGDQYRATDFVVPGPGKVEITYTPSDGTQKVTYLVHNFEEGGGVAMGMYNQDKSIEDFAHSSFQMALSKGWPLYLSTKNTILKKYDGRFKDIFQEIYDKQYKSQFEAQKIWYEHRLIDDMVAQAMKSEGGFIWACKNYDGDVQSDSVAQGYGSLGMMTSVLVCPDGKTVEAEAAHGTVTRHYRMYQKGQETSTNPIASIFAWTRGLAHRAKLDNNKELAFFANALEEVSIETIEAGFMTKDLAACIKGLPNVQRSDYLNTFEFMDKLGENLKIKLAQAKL

SMILES: CC1(C)CCC(CN2CCN(c3ccc(C(=O)NS(=O)(=O)c4ccc(NCC5CCOCC5)c([N+](=O)[O-])c4)c(Oc4cnc5[nH]ccc5c4)c3)CC2)=C(c2ccc(Cl)cc2)C1 [Venetoclax, venetoclax, reference compound]
- viability at 0.025 µM ([1]; Homo sapiens, MOLM-14, 48 h, venetoclax 25 nM alone, 2 days): 76.1%
- viability at 0.05 µM ([1]; Homo sapiens, MOLM-14, 48 h, venetoclax 50 nM alone, 2 days): 76.9%
- viability at 0.1 µM ([1]; Homo sapiens, MOLM-14, 48 h, venetoclax 100 nM alone, 2 days): 70.4%
- viability at 0.2 µM ([1]; Homo sapiens, MOLM-14, 48 h, venetoclax 200 nM alone, 2 days): 55.2%
- % Annexin V + as a measure of apoptosis ([1]; venetoclax 25 nM alone): 19.1% and 15.93% and 19.16%
- % Cell Viability ([1]; venetoclax 25 nM alone, 2 days): 81.78% and 77.84%
- % Annexin V + as a measure of apoptosis ([1]; venetoclax 50 nM alone): 18.22% and 16.34% and 17.15%
- % Cell Viability ([1]; venetoclax 50 nM alone, 2 days): 80.63% and 78.78%
- % Annexin V + as a measure of apoptosis ([1]; venetoclax 100 nM alone): 24.62% and 18.98% and 22.98%
- % Cell Viability ([1]; venetoclax 100 nM alone, 2 days): 73.78%
- % Annexin V + as a measure of apoptosis ([1]; venetoclax 200 nM alone): 41.67% and 35.73% and 41.22%
- % Cell Viability ([1]; venetoclax 200 nM alone, 2 days): 59.27% and 56.31%
- AML cell differentiation (% hCD14+ of hCD45+) [2, 5]: 37.7% and 26% and 40.7% and 32.6%
- Leukemic burden (% hCD33+hCD45+ of total white cells) [2, 5]: 10.1% and 63% and 14.1% and 54.9%

SMILES: C=CC(=O)N1CCN([C@@H](CC2CC2)c2ccc([C@H](C)Nc3ncc4c(n3)N(CC)C(=O)OC4)cc2)CC1 [Compound A, 7-[[(1S)-1-[4-[(1S)-2-cyclopropyl-1-(4-prop-2-enoylpiperazin-1-yl)ethyl]phenyl]ethyl]amino]-1-ethyl-4H-pyrimido[4,5-d][1,3]oxazin-2-one]
- 2-HG ([3]; 0.1 μM Compound A): 3.369 µM and 3.044 µM and 3.488 µM
- 2-HG ([3]; 1 μM Compound A): 3.578 µM and 3.199 µM and 3.378 µM
- 2-HG production by mutant IDH1 (in words) ([3]; MOLM14 R132 cell line construct): inhibits 2-HG production
- % Annexin V + as a measure of apoptosis ([1]; Compound A 125 nM alone): 5.56% and 4.3% and 5.12%
- % Cell Viability ([1]; Compound A 125 nM alone): 95.14% and 94.27%
- % Annexin V + as a measure of apoptosis ([1]; Compound A 250 nM alone): 6.18% and 4.95% and 4.92%
- % Cell Viability ([1]; Compound A 250 nM alone): 94.27% and 94.41%
- % Annexin V + as a measure of apoptosis ([1]; Compound A 500 nM alone): 5.82% and 5.23% and 5.19%
- % Cell Viability ([1]; Compound A 500 nM alone): 93.92% and 94.15%
- % Annexin V + as a measure of apoptosis ([1]; Compound A 1000 nM alone): 7.2% and 5.51% and 7.52%
- % Cell Viability ([1]; Compound A 1000 nM alone): 93.98% and 91.68%
- viability at 0.125 µM ([1]; Homo sapiens, MOLM-14, Compound A 125 nM alone): 93.7%
- viability at 0.25 µM ([1]; Homo sapiens, MOLM-14, Compound A 250 nM alone): 93.3%
- viability at 0.5 µM ([1]; Homo sapiens, MOLM-14, Compound A 500 nM alone): 93.7%
- viability at 1 µM ([1]; Homo sapiens, MOLM-14, Compound A 1000 nM alone): 92%
- AML cell differentiation (% hCD14+ of hCD45+) [2, 6]: 44.1% and 58.3% and 63.6% and 64.1% and 51.7% and 58.9%
- Leukemic burden (% hCD33+hCD45+ of total white cells) [2, 6]: 87.8% and 88.5% and 51.5% and 65.6% and 85.1% and 81.9%
- 2-HG production (in words) [4]: selectively inhibits 2-HG production
- α-KG levels (in words) [4]: without affecting α—KG levels
